Experimental data from PMC5674494, “Use of Cyclic Backbone NGR-Based SPECT to Increase Efficacy of Postmyocardial Infarction Angiogenesis Imaging” (Contrast Media & Molecular Imaging, 2017).
Positions of bridges follow the written chain, without caps; N, C: chain ends. Residues, ends and D or L forms follow the SMILES beside them. *: point of attachment. X1 = N[C@@H](CSC1CC(=O)N(CC2CCC(C(=O)NCCCCC(C(=O)O)N(CCN(CC(=O)O)CC(=O)O)CCN(CC(=O)O)CC(=O)O)CC2)C1=O)C(=O)*

What was measured:
[1] = Micro-SPECT myocardial perfusion, SUV of 99mTc-sestamibi in heart segments; type: in vivo, Swiss mice; conditions: i.v., last of 4 15-min SPECT frames, mean ± SEM
Protocol: In 10–12-week-old male Swiss mice, we induced MI by ligation of the left anterior descending coronary artery (LAD) as described before to test coNGR (n = 5) or co(NGR)4 (n = 8). […] SPECT imaging was performed 7 days after MI or sham surgery. All animals were held under the guidelines of the animal care facility (Maastricht University). All animal experiments were approved by the Committee for Animal Welfare of Maastricht University.
Mice were anesthetized with isoflurane (induction 2.5%; maintenance 1.5%), a catheter was placed in a tail vein, and animals were positioned in the SPECT camera (MILabs, Utrecht, The Netherlands). Prior to image acquisition, a bolus injection of ^99mTc-sestamibi and ^111In-coNGR or ^111In-co(NGR)4 was given intravenously (i.v.) in a maximum volume of 200 µL. Table S1 in Supplementary Material available online at https://doi.org/10.1155/2017/8638549 provides an overview of the average injected dose. Immediately after injection, 4 consecutive time frames of 15 min each were acquired. For image quantification we used the last of these frames.
Acquired list mode data was reconstructed using MILabs reconstruction software (version 2.51) employing the POS-EM algorithm (6 iterations and 16 subsets, reconstructed at a voxel size of 0.4 mm). ^99mTc and ^111In images were reconstructed by selecting photo peak and background energy levels as described before.
To allow quantification of imaging agent uptake, in vivo isotope-specific conversion factors (CF) were determined for the 0.6 mm collimator in a representative phantom with a known activity. Using the previously described method the following conversion factors (CF), CF99mTc 612 MBq/mL and CF111In 643 MBq/mL, were found.
PMOD 3.7 cardiac tool PCARD (PMOD technologies, Zürich, Switzerland) was used to segment the heart in the 17-segment model. Uptake per segment was subsequently expressed as a mean standardized uptake value (SUVmean), also using the previously described method. For body weight, we assumed that 1 g equalled 1 mL.

[2] = Octanol/water partition coefficient (logP); type: physicochemical; conditions: 111In-labeled tracer, separate experiment 2 of 3, N = 3, method as ref 22
Protocol: The logP value of each compound was determined in three separate experiments as described previously.

in vitro = in vitro ADME; conditions: human, whole blood
Protocol: ^111[…], or ^111In-co(NGR)4 was added to […] human blood in heparin (BD Biosciences, […], The Netherlands). Blood stability was tested at 0, 10, 30, and 50 min. For each time point imaging agents were separated from blood cells and proteins by adding 0.5 mL MeCN (VWR International BV, Breda, The Netherlands) to 0.5 mL blood sample followed by centrifugation (2,000 ×g, 3 min). Supernatant samples were analyzed by HPLC using the above-mentioned method.

[3] = MI mice (n = 5), coNGR group, 7 days after LAD ligation
[4] = MI mice (n = 8), co(NGR)4 group, 7 days after LAD ligation
[5] = Sham-operated mice (n = 6), co(NGR)4 group, 7 days after surgery

For `[C-]#[N+]CC(C)(C)OC.[C-]#[N+]CC(C)(C)OC.[C-]#[N+]CC(C)(C)OC.[C-]#[N+]CC(C)(C)OC.[C-]#[N+]CC(C)(C)OC.[C-]#[N+]CC(C)(C)OC.[Tc]` [^99mTc-sestamibi], the “SUV of 99mTc-sestamibi, segment 1. Basal anterior” value (from here on “SUV … segment 1. Basal anterior”) [1, 3] was 2.46 ± 0.45, the “SUV of 99mTc-sestamibi, segment 2. Basal anteroseptal” value (“SUV … segment 2. Basal anteroseptal” below) [1, 3] was 2.28 ± 0.39 and the “SUV of 99mTc-sestamibi, segment 3. Basal inferoseptal” value (shortened to “SUV … segment 3. Basal inferoseptal”) [1, 3] was 2.33 ± 0.38. The “SUV of 99mTc-sestamibi, segment 4. Basal inferior” value (“SUV … segment 4. Basal inferior” for short) [1, 3] was 2.60 ± 0.56, the “SUV of 99mTc-sestamibi, segment 5. Basal inferolateral” value (“SUV … segment 5. Basal inferolateral” below) [1, 3] was 2.23 ± 0.63 and the “SUV of 99mTc-sestamibi, segment 6. Basal anterolateral” value (“SUV … segment 6. Basal anterolateral” below) [1, 3] was 2.14 ± 0.52. The “SUV of 99mTc-sestamibi, segment 7. Mid anterior” value (“SUV … segment 7. Mid anterior” below) [1, 3] was 1.41 ± 0.28, the “SUV of 99mTc-sestamibi, segment 8. Mid anteroseptal” value (“SUV … segment 8. Mid anteroseptal” for short) [1, 3] was 2.46 ± 0.39 and the “SUV of 99mTc-sestamibi, segment 9. Mid inferoseptal” value (from here on “SUV … segment 9. Mid inferoseptal”) [1, 3] was 2.27 ± 0.53. For the same compound, the “SUV of 99mTc-sestamibi, segment 10. Mid inferior” value (from here on “SUV … segment 10. Mid inferior”) [1, 3] was 1.64 ± 0.67, the “SUV of 99mTc-sestamibi, segment 11. Mid inferolateral” value (shortened to “SUV … segment 11. Mid inferolateral”) [1, 3] was 0.75 ± 0.24 and the “SUV of 99mTc-sestamibi, segment 12. Mid anterolateral” value (“SUV … segment 12. Mid anterolateral” for short) [1, 3] was 0.42 ± 0.09. For the same compound, the “SUV of 99mTc-sestamibi, segment 13. Apical anterior” value (“SUV … segment 13. Apical anterior” below) [1, 3] was 0.71 ± 0.30, the “SUV of 99mTc-sestamibi, segment 14. Apical septal” value (“SUV … segment 14. Apical septal” for short) [1, 3] was 1.67 ± 0.39 and the “SUV of 99mTc-sestamibi, segment 15. Apical inferior” value (“SUV … segment 15. Apical inferior” below) [1, 3] was 1.30 ± 0.31. For the same compound, the “SUV of 99mTc-sestamibi, segment 16. Apical lateral” value (“SUV … segment 16. Apical lateral” for short) [1, 3] was 0.59 ± 0.26, the “SUV of 99mTc-sestamibi, segment 17. Apex” value [1, 3] was 0.98 ± 0.35 and the “SUV … segment 1. Basal anterior” value [1, 4] was 2.60 ± 0.70. The “SUV … segment 2. Basal anteroseptal” value [1, 4] was 3.68 ± 0.42, the “SUV … segment 3. Basal inferoseptal” value [1, 4] was 3.97 ± 0.49 and the “SUV … segment 4. Basal inferior” value [1, 4] was 3.06 ± 0.54. The “SUV … segment 5. Basal inferolateral” value [1, 4] was 1.66 ± 0.47, the “SUV … segment 6. Basal anterolateral” value [1, 4] was 1.60 ± 0.55 and the “SUV … segment 7. Mid anterior” value [1, 4] was 1.35 ± 0.31. The “SUV … segment 8. Mid anteroseptal” value [1, 4] was 3.56 ± 0.47, the “SUV … segment 9. Mid inferoseptal” value [1, 4] was 3.57 ± 0.68 and the “SUV … segment 10. Mid inferior” value [1, 4] was 2.21 ± 0.52. The “SUV … segment 11. Mid inferolateral” value [1, 4] was 0.68 ± 0.07, the “SUV … segment 12. Mid anterolateral” value [1, 4] was 0.62 ± 0.07 and the “SUV … segment 13. Apical anterior” value [1, 4] was 1.04 ± 0.25. For the same compound, the “SUV … segment 14. Apical septal” value [1, 4] was 2.68 ± 0.30, the “SUV … segment 15. Apical inferior” value [1, 4] was 2.06 ± 0.24 and the “SUV … segment 16. Apical lateral” value [1, 4] was 0.67 ± 0.11. The “SUV of 99mTc-sestamibi, segment 17. Apex” value [1, 4] was 1.25 ± 0.32, the “SUV … segment 1. Basal anterior” value [1, 5] was 2.91 ± .026 and the “SUV … segment 2. Basal anteroseptal” value [1, 5] was 2.72 ± 0.32. The “SUV … segment 3. Basal inferoseptal” value [1, 5] was 2.89 ± 0.33, the “SUV … segment 4. Basal inferior” value [1, 5] was 3.07 ± 0.33 and the “SUV … segment 5. Basal inferolateral” value [1, 5] was 3.03 ± 0.30. The “SUV … segment 6. Basal anterolateral” value [1, 5] was 2.89 ± 0.20, the “SUV … segment 7. Mid anterior” value [1, 5] was 3.00 ± 0.22 and the “SUV … segment 8. Mid anteroseptal” value [1, 5] was 3.10 ± 0.28. The “SUV … segment 9. Mid inferoseptal” value [1, 5] was 3.16 ± 0.26, the “SUV … segment 10. Mid inferior” value [1, 5] was 3.03 ± 0.29 and the “SUV … segment 11. Mid inferolateral” value [1, 5] was 3.06 ± 0.34. For the same compound, the “SUV … segment 12. Mid anterolateral” value [1, 5] was 2.77 ± 0.22, the “SUV … segment 13. Apical anterior” value [1, 5] was 2.93 ± 0.22 and the “SUV … segment 14. Apical septal” value [1, 5] was 3.23 ± 0.24. The “SUV … segment 15. Apical inferior” value [1, 5] was 2.88 ± 0.32, the “SUV … segment 16. Apical lateral” value [1, 5] was 2.44 ± 0.20 and the “SUV of 99mTc-sestamibi, segment 17. Apex” value [1, 5] was 2.71 ± 0.25.
For `CC(=O)N[C@H]1CSSC[C@@H](C(=O)NCC(=O)NCC(=O)N[C@@H](CCCCNC(=O)[C@@H](N)CSC2CC(=O)N(CC3CCC(C(=O)NCCCCC(C(=O)O)N(CCN(CC(=O)O)CC(=O)O)CCN(CC(=O)O)CC(=O)O)CC3)C2=O)C(N)=O)NC(=O)[C@H](CCCNC(=N)N)NC(=O)CNC(=O)[C@H](CC(N)=O)NC1=O` (stereo partly drawn) [cNGR, cyclic(NAc-Cys-Asn-Gly-Arg-Cys-Gly-Gly-Lys)] (Ac-CNGRCGGK(X1)-NH2; disulfide 1-5), the logP2 [2] was −4.17 ± 0.01 and the remaining at 50 min (in vitro) was 7.55%.
